From paper PMC8119466, “A screen of FDA-approved drugs identifies inhibitors of protein tyrosine phosphatase 4A3 (PTP4A3 or PRL-3)” (Scientific Reports, 2021)
Counter-ions that a name gives are not always drawn. Like-named read-outs stand apart in the source and are kept apart here.

Tests used:
Assay type in all cases: biochemical
recombinant PRL-3 = molecular target: T1, recombinant PRL-3 (Homo sapiens, UniProt O75365); assay: In vitro phosphatase assay (DiFMUP hydrolysis), PRL-3; further: test concentration or dose not given here
T1 construct: 6xHis (N, cleaved yes); made in house; host or cells: E. coli One Shot BL21 Star

recombinant PRL-2 = molecular target: T2, recombinant PRL-2 (Homo sapiens, UniProt Q12974); assay: In vitro phosphatase assay (DiFMUP hydrolysis), PRL-2;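 further: PRL-2 activity read as DiFMUP hydrolysis after 20 min at room temperature with drug, enzyme first pre-reduced at 4 °C for 20 min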
T2 construct: 6xHis (N, cleaved yes); made in house; host or cells: E. coli One Shot BL21 Star
T2 sequence (Q12974 1-167): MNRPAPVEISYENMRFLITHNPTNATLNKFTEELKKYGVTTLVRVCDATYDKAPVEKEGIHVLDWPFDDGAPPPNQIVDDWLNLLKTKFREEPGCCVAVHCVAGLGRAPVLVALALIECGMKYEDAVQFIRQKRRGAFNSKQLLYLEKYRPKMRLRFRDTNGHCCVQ

recombinant PRL-1 = molecular target: T3, recombinant PRL-1 (Homo sapiens, UniProt Q93096); assay: In vitro phosphatase assay (DiFMUP hydrolysis), PRL-1; further: test concentration or dose not given here
T3 construct: 6xHis (N, cleaved yes); made in house; host or cells: E. coli One Shot BL21 Star
T3 sequence (Q93096 1-173): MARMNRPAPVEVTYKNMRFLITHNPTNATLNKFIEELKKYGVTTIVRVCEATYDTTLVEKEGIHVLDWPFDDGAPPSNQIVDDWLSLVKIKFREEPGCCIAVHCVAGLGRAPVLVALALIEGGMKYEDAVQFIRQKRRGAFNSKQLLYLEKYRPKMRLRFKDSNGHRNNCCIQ

[1] = FDA-approved drug screen, compared to DMSO
[2] = FDA-approved drug screen, activity compared to DMSO

T1 sequence (O75365 whole entry): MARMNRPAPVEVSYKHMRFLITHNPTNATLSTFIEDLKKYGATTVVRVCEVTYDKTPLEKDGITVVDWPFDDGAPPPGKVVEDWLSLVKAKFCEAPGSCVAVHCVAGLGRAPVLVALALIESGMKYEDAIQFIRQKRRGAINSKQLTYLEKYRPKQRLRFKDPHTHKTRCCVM

SMILES	% Phosphatase Activity (compared to DMSO) PRL-3 (recombinant PRL-3; [1]) [%]	% Phosphatase Activity (compared to DMSO) PRL-2 (recombinant PRL-2; [1]) [%]	% Phosphatase Activity (compared to DMSO) PRL-1 (recombinant PRL-1; [1]) [%]	also measured
COc1cccc2c1C(=O)c1c(O)c3c(c(O)c1C2=O)C[C@@](O)(C(=O)CO)C[C@@H]3O[C@H]1C[C@H](N)[C@H](O)[C@H](C)O1 [Doxorubicin (Adriamycin)]	73	74	75	
CCCCOc1cc(C(=O)OCCN(CC)CC)ccc1N [Oxybuprocaine HCl]	93	103	97	
Clc1ccc(COC(Cn2ccnc2)c2ccc(Cl)cc2Cl)c(Cl)c1 (stereo not drawn) [Miconazole]	86	101	109	
CCCCOc1cc(C(=O)NCCN(CC)CC)c2ccccc2n1 [Dibucaine HCl]	101	108	110	
CC(=O)NC[C@H]1CN(c2ccc(N3CCOCC3)c(F)c2)C(=O)O1 [Linezolid]	89	97	98	
CCS(=O)(=O)CCn1c([N+](=O)[O-])cnc1C [Tinidazole]				% Phosphatase Activity (compared to DMSO) PRL-3 (recombinant PRL-3; [2]): 84%; % Phosphatase Activity (compared to DMSO) PRL-2 (recombinant PRL-2; [2]): 113%; % Phosphatase Activity (compared to DMSO) PRL-1 (recombinant PRL-1; [2]): 107%
Nc1ccc(S(=O)(=O)c2ccc(N)cc2)cc1 [Dapson]	75	100	89	
CCOC(=O)C1=C(COCCN)NC(C)=C(C(=O)OC)C1c1ccccc1Cl.O=S(=O)(O)c1ccccc1 (stereo not drawn) [Amlodipine besylate (Norvasc)]	168	174	152	
C#C[C@]1(O)CC[C@H]2[C@@H]3CCC4=CCCC[C@@H]4[C@H]3C(=C)C[C@@]21CC [Desogestrel]	84	109	104	
Cl.N=C(N)NN [Aminoguanidine (hydrochloride)]	87	91	100	
Cc1ccsc1C(=CCCN1CCC[C@@H](C(=O)O)C1)c1sccc1C [Tiagabine]				% Phosphatase Activity (compared to DMSO) PRL-3 (recombinant PRL-3; [2]): 78%; % Phosphatase Activity (compared to DMSO) PRL-2 (recombinant PRL-2; [2]): 104%; % Phosphatase Activity (compared to DMSO) PRL-1 (recombinant PRL-1; [2]): 100%
CC(=O)O[C@H]1C[C@@]2(C)[C@@H](C[C@@H](O)[C@H]3[C@@]4(C)CC[C@@H](O)[C@@H](C)[C@@H]4CC[C@@]32C)/C1=C(\CCC=C(C)C)C(=O)O [Fusidate Sodium]	66	79	87	
CC1(C)[C@H](C(=O)O)N2C(=O)C[C@H]2S1(=O)=O [Sulbactam]				% Phosphatase Activity (compared to DMSO) PRL-3 (recombinant PRL-3; [2]): 81%; % Phosphatase Activity (compared to DMSO) PRL-2 (recombinant PRL-2; [2]): 91%; % Phosphatase Activity (compared to DMSO) PRL-1 (recombinant PRL-1; [2]): 95%
C[C@@H](O[C@H]1OCCN(Cc2n[nH]c(=O)[nH]2)[C@H]1c1ccc(F)cc1)c1cc(C(F)(F)F)cc(C(F)(F)F)c1 [Aprepitant]	80	94	104	
COC(=O)c1ccc2c(c1)NC(=O)/C2=C(\Nc1ccc(N(C)C(=O)CN2CCN(C)CC2)cc1)c1ccccc1 [Nintedanib (BIBF 1120)]	73	106	92	
O=C(NC1CCN(CCCCC2(C(=O)NCC(F)(F)F)c3ccccc3-c3ccccc32)CC1)c1ccccc1-c1ccc(C(F)(F)F)cc1 [Lomitapide]	117	118	124	
C[N+](C)(C)CCOC(N)=O [Carbachol]	82	100	91	
CN1CCN2c3ccccc3Cc3ccccc3C2C1 (stereo not drawn) [Mianserin HCl]	59	99	95	
Cc1cnc(C(=O)NCCc2ccc(S(=O)(=O)NC(=O)NC3CCCCC3)cc2)cn1 [Glipizide]				% Phosphatase Activity (compared to DMSO) PRL-3 (recombinant PRL-3): 75%; % Phosphatase Activity (compared to DMSO) PRL-2 (recombinant PRL-2): 98%; % Phosphatase Activity (compared to DMSO) PRL-1 (recombinant PRL-1): 97%
CCC1(c2cccc(O)c2)CCCCN(C)C1 (stereo not drawn) [Meptazinol HCl]	84	124	106	
C[C@](N)(Cc1ccc(O)c(O)c1)C(=O)O [Methyldopa]	70	95	98	
CCn1c(=O)c(-c2cc[nH]n2)cc2c(C)nc(N)nc21 [SAR245409 (XL765)]	74	74	89	
CC(C(=O)O)c1ccc(C(=O)c2cccs2)cc1 (stereo not drawn) [Suprofen]				% Phosphatase Activity (compared to DMSO) PRL-3 (recombinant PRL-3; [2]): 92%; % Phosphatase Activity (compared to DMSO) PRL-2 (recombinant PRL-2; [2]): 95%; % Phosphatase Activity (compared to DMSO) PRL-1 (recombinant PRL-1; [2]): 93%
CN(C/C=C/C#CC(C)(C)C)Cc1cccc2ccccc12 [Terbinafine HCl]				% Phosphatase Activity (compared to DMSO) PRL-3 (recombinant PRL-3; [2]): 86%; % Phosphatase Activity (compared to DMSO) PRL-2 (recombinant PRL-2; [2]): 108%; % Phosphatase Activity (compared to DMSO) PRL-1 (recombinant PRL-1; [2]): 100%
C[N+]1(C)[C@@H]2C[C@@H](OC(=O)C(O)(c3cccs3)c3cccs3)C[C@H]1[C@@H]1O[C@@H]12 [Tiotropium Bromide hydrate]				% Phosphatase Activity (compared to DMSO) PRL-3 (recombinant PRL-3; [2]): 84%; % Phosphatase Activity (compared to DMSO) PRL-2 (recombinant PRL-2; [2]): 115%; % Phosphatase Activity (compared to DMSO) PRL-1 (recombinant PRL-1; [2]): 95%
CC(C)(C)c1ccc(C(O)CCCN2CCC(C(O)(c3ccccc3)c3ccccc3)CC2)cc1 (stereo not drawn) [Terfenadine]				% Phosphatase Activity (compared to DMSO) PRL-3 (recombinant PRL-3; [2]): 91%; % Phosphatase Activity (compared to DMSO) PRL-2 (recombinant PRL-2; [2]): 100%; % Phosphatase Activity (compared to DMSO) PRL-1 (recombinant PRL-1; [2]): 96%
O=C(c1cc(Cc2n[nH]c(=O)c3ccccc23)ccc1F)N1CCN(C(=O)C2CC2)CC1 [Olaparib (AZD2281, Ku-0059436)]	91	101	88	
O=C1NCC2(CCN(CCc3ccccc3)CC2)O1 [Fenspiride HCl]	104	101	90	
CCOc1ccc2ccccc2c1C(=O)N[C@@H]1C(=O)N2[C@@H]1SC(C)(C)[C@@H]2C(=O)O [Nafcillin Sodium]	60	108	98	
CC[C@]1(O)C[C@H]2CN(CCc3c([nH]c4ccccc34)[C@@](C(=O)OC)(c3cc4c(cc3OC)N(C=O)[C@H]3[C@@](O)(C(=O)OC)[C@H](OC(C)=O)[C@]5(CC)C=CCN6CC[C@]43[C@@H]65)C2)C1 [Vincristine]				% Phosphatase Activity (compared to DMSO) PRL-3 (recombinant PRL-3; [2]): 61%; % Phosphatase Activity (compared to DMSO) PRL-2 (recombinant PRL-2; [2]): 100%; % Phosphatase Activity (compared to DMSO) PRL-1 (recombinant PRL-1; [2]): 85%
